Data taken from ChEMBL document CHEMBL3885861, “Open TG-GATES”.

Species: Rattus norvegicus
Assay: Open TG-GATES - Regimen: Single
Format: toxicity, organism-based, Sprague-Dawley
Design: regimen Single, gender Male, age 6 weeks
Conditions: in vivo, po, 100 mg/kg, route gavage, dose level Low; for APTT / Bas / Eos / Fbg / Hb / Ht / Lym / MCH / MCHC / MCV / Mono / Neu / PT / Plat / RBC / Ret / WBC: tissue Blood; for KIDNEY_L / KIDNEY_R / KIDNEY_TOTAL: tissue Kidney; for LIVER: tissue Liver; for A/G / ALP / ALT / AST / BUN / CRE / Ca / Cl / DBIL / GLC / IP / K / LDH / Na / PL / RALB / TBIL / TC / TG / TP / gamma-GTP: tissue Plasma

In the case of `CN/C(=N/CCSCc1nc[nH]c1C)NC#N` [CIMETIDINE], the TERMINAL_BW (3 h) is reported as 214.5 g, the APTT (3 h) is reported as 18.3 s and the Bas (3 h) is reported as 0%. It also gave an Eos (3 h) of 1%, a Fbg (3 h) of 220.4 mg/dL and a Hb (3 h) of 13.1 g/dL. For the same molecule, the Ht (3 h) was 38.2%, the Lym (3 h) was 78.6% and the MCH (3 h) was 21.9 pg. For the same molecule, the MCHC (3 h) was 34.2%, the MCV (3 h) was 64.1 fL and the Mono (3 h) was 2.8%. For the same molecule, the Neu (3 h) was 16.8%, the PT (3 h) was 12.8 s and the Plat (3 h) was 127.8 x10_4/uL. For the same molecule, the RBC (3 h) was 596.2 x10_4/ul, the Ret (3 h) was 8.3% and the WBC (3 h) was 109.3 x10_2/uL. For the same molecule, the KIDNEY_L (3 h) was 1 g, the KIDNEY_R (3 h) was 1 g and the KIDNEY_TOTAL (3 h) was 2 g. It also gave an LIVER (3 h) of 10 g, an A/G (3 h) of 1.7 and an ALP (3 h) of 1167.2 IU/L. The ALT (3 h) was 39.4 IU/L, the AST (3 h) was 70.2 IU/L and the BUN (3 h) was 9.6 mg/dL. The CRE (3 h) was 0.4 mg/dL, the Ca (3 h) was 10.6 mg/dL and the Cl (3 h) was 102.6 meq/L. The DBIL (3 h) was 0.072 mg/dL, the GLC (3 h) was 195 mg/dL and the IP (3 h) was 9.5 mg/dL. It also gave a K (3 h) of 4 meq/L, an LDH (3 h) of 154.4 IU/L and a Na (3 h) of 140.6 meq/L. It also gave a PL (3 h) of 140.6 mg/dL, an RALB (3 h) of 3.4 g/dL and a TBIL (3 h) of 0.1 mg/dL. It also gave a TC (3 h) of 75.2 mg/dL, a TG (3 h) of 47.4 mg/dL and a TP (3 h) of 5.5 g/dL. It also gave a gamma-GTP (3 h) of 0.6 IU/L, a TERMINAL_BW (6 h) of 209.9 g and an APTT (6 h) of 18.8 s. The Bas (6 h) was 0%, the Eos (6 h) was 1% and the Fbg (6 h) was 216.8 mg/dL. For the same molecule, the Hb (6 h) was 13.2 g/dL, the Ht (6 h) was 38% and the Lym (6 h) was 77.6%. The MCH (6 h) was 22.2 pg, the MCHC (6 h) was 34.8% and the MCV (6 h) was 63.7 fL. The Mono (6 h) was 2.8%, the Neu (6 h) was 17.6% and the PT (6 h) was 13.1 s. The Plat (6 h) was 135.7 x10_4/uL, the RBC (6 h) was 596.8 x10_4/ul and the Ret (6 h) was 7.8%. It also gave a WBC (6 h) of 98.4 x10_2/uL, a KIDNEY_L (6 h) of 1 g and a KIDNEY_R (6 h) of 1 g. For the same molecule, the KIDNEY_TOTAL (6 h) was 1.9 g, the LIVER (6 h) was 9.7 g and the A/G (6 h) was 1.6. For the same molecule, the ALP (6 h) was 885 IU/L, the ALT (6 h) was 34.4 IU/L and the AST (6 h) was 64 IU/L. The BUN (6 h) was 9.6 mg/dL, the CRE (6 h) was 0.4 mg/dL and the Ca (6 h) was 10.6 mg/dL. It also gave a Cl (6 h) of 102.4 meq/L, a DBIL (6 h) of 0.07 mg/dL and a GLC (6 h) of 194.6 mg/dL. It also gave an IP (6 h) of 9.6 mg/dL, a K (6 h) of 3.7 meq/L and an LDH (6 h) of 180 IU/L. For the same molecule, the Na (6 h) was 141.4 meq/L, the PL (6 h) was 138 mg/dL and the RALB (6 h) was 3.4 g/dL. For the same molecule, the TBIL (6 h) was 0.1 mg/dL, the TC (6 h) was 70.6 mg/dL and the TG (6 h) was 61.4 mg/dL. It also gave a TP (6 h) of 5.5 g/dL, a gamma-GTP (6 h) of 1.8 IU/L and a TERMINAL_BW (9 h) of 209.3 g. It also gave an APTT (9 h) of 20.3 s, a Bas (9 h) of 0% and an Eos (9 h) of 1%. The Fbg (9 h) was 246 mg/dL, the Hb (9 h) was 12.9 g/dL and the Ht (9 h) was 36.9%. For the same molecule, the Lym (9 h) was 74%, the MCH (9 h) was 22.4 pg and the MCHC (9 h) was 34.9%. It also gave an MCV (9 h) of 64.3 fL, a Mono (9 h) of 2.4% and a Neu (9 h) of 21%. It also gave a PT (9 h) of 13.7 s, a Plat (9 h) of 128.2 x10_4/uL and an RBC (9 h) of 575.2 x10_4/ul. The Ret (9 h) was 8.7%, the WBC (9 h) was 88 x10_2/uL and the KIDNEY_L (9 h) was 1 g. It also gave a KIDNEY_R (9 h) of 1 g, a KIDNEY_TOTAL (9 h) of 1.9 g and an LIVER (9 h) of 9.2 g. The A/G (9 h) was 1.6, the ALP (9 h) was 890.8 IU/L and the ALT (9 h) was 31.4 IU/L. The AST (9 h) was 62 IU/L, the BUN (9 h) was 11.6 mg/dL and the CRE (9 h) was 0.3 mg/dL. For the same molecule, the Ca (9 h) was 10.5 mg/dL, the Cl (9 h) was 103.4 meq/L and the DBIL (9 h) was 0.076 mg/dL. The GLC (9 h) was 194.4 mg/dL, the IP (9 h) was 10 mg/dL and the K (9 h) was 3.9 meq/L. It also gave an LDH (9 h) of 137.4 IU/L, a Na (9 h) of 141.4 meq/L and a PL (9 h) of 135 mg/dL. The RALB (9 h) was 3.4 g/dL, the TBIL (9 h) was 0.1 mg/dL and the TC (9 h) was 74.4 mg/dL. The TG (9 h) was 42.8 mg/dL, the TP (9 h) was 5.5 g/dL and the gamma-GTP (9 h) was 1.2 IU/L. It also gave a TERMINAL_BW (24 h) of 225.6 g, an APTT (24 h) of 19.4 s and a Bas (24 h) of 0%. The Eos (24 h) was 1%, the Fbg (24 h) was 227.2 mg/dL and the Hb (24 h) was 12.7 g/dL. The Ht (24 h) was 37.8%, the Lym (24 h) was 79.8% and the MCH (24 h) was 21.5 pg. It also gave an MCHC (24 h) of 33.7%, an MCV (24 h) of 63.7 fL and a Mono (24 h) of 3.2%. For the same molecule, the Neu (24 h) was 14.8%, the PT (24 h) was 12.8 s and the Plat (24 h) was 135 x10_4/uL. It also gave an RBC (24 h) of 593.4 x10_4/ul, a Ret (24 h) of 7.2% and a WBC (24 h) of 109.1 x10_2/uL. It also gave a KIDNEY_L (24 h) of 1 g, a KIDNEY_R (24 h) of 1.1 g and a KIDNEY_TOTAL (24 h) of 2.1 g. For the same molecule, the LIVER (24 h) was 11.2 g, the A/G (24 h) was 1.7 and the ALP (24 h) was 1060 IU/L. It also gave an ALT (24 h) of 35.2 IU/L, an AST (24 h) of 64.4 IU/L and a BUN (24 h) of 15.8 mg/dL. It also gave a CRE (24 h) of 0.4 mg/dL, a Ca (24 h) of 10.8 mg/dL and a Cl (24 h) of 102.2 meq/L. For the same molecule, the DBIL (24 h) was 0.1 mg/dL, the GLC (24 h) was 199.4 mg/dL and the IP (24 h) was 6.9 mg/dL. It also gave a K (24 h) of 4.2 meq/L, an LDH (24 h) of 155.6 IU/L and a Na (24 h) of 140 meq/L. It also gave a PL (24 h) of 143.8 mg/dL, an RALB (24 h) of 3.4 g/dL and a TBIL (24 h) of 0.2 mg/dL. For the same molecule, the TC (24 h) was 73.2 mg/dL, the TG (24 h) was 98.8 mg/dL and the TP (24 h) was 5.5 g/dL. For the same molecule, the gamma-GTP (24 h) was 1.6 IU/L.
